Measured values taken from US11345666B2, “Phenyl and pyridinyl substituted imidazoles as modulators of RORγT” (Janssen Pharmaceutica NV, priority 2018, dated 2022).
Read-outs that look alike come from different tables or passages of the source. Marks after values point to notes of the source that are not given here.

Experiments:
[1] = target: human RORγt ligand binding domain (RORγt LBD) (Homo sapiens (Human), UniProt P51449); test: RORγt ThermoFluor assay
Method in brief: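 Thermal shift of His-tagged human RORγt LBD (0.065 mg/mL) with 60 μM 1,8-ANS in 100 mM Hepes pH 7.0, 10 mM NaCl, 2.5 mM GSH, 0.002% Tween-20, heated at 1° C./min. Compounds in 1:2 series from a 10 mM DMSO stock; KD estimated from ΔTm using protein unfolding thermodynamics.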

full-length human RORγt = full-length human RORγt (Homo sapiens (Human), UniProt P51449); test: RORγt (full-length human) reporter assay, conditions A or B; assay type: cell-based; settings: for IC50: HEK293T cells, read-out: RORγt (FL) Reporter Assay A or B, IC50; for inhibition at 6 µM: read-out: RORγt (FL) Reporter Assay A or B, % inhibition @ 6 μM, 6 μM compound concentration; for inhibition at 2 µM: 2 μM compound concentration (**)
Method in brief: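 HEK293T cells transiently co-transfected (PEI) with GAL4-DBD–RORγt, GAL4-firefly luciferase and CMV-Renilla reporters; condition A 35,000 cells/well, 170.5 ng DNA/well; condition B 8750 cells/well, 42.6 ng DNA/well.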

[2] = read-out: RORγt (FL) Reporter Assay A or B, % inhibition
[3] = 0.67 μM compound concentration (****), read-out: RORγt (FL) Reporter Assay A or B, % inhibition
[4] = 3 μM compound concentration (*), read-out: RORγt (FL) Reporter Assay A or B, % inhibition

human RORγt ligand binding domain (RORγt LBD), sequence (P51449 other isoform, or with tags, fused parts or gaps): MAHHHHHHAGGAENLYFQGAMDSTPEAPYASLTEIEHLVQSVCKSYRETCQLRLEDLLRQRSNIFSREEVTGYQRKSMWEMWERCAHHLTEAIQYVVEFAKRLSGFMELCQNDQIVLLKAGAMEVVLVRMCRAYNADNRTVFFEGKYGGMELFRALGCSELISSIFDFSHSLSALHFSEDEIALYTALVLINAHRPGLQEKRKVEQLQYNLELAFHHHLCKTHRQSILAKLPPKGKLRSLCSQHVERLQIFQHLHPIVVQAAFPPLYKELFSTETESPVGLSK
full-length human RORγt, sequence (P51449 other isoform, or with tags, fused parts or gaps): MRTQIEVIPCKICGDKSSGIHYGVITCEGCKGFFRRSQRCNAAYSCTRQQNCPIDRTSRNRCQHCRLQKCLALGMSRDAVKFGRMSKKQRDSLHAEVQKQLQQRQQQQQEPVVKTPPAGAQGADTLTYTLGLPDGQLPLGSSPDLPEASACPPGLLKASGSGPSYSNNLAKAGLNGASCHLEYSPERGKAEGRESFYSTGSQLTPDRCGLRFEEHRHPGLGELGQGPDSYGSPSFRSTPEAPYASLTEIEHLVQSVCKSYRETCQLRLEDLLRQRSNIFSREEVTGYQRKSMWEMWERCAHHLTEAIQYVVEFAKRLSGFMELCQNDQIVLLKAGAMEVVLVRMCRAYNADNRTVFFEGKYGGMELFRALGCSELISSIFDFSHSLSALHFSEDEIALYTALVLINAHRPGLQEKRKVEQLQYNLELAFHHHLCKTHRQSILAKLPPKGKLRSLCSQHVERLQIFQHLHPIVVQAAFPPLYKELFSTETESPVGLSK

SMILES	Kd [1] [nM]	IC50 (full-length human RORγt) [nM]	also measured
Cc1nc(C(=O)NC[C@]2(O)CC[C@@H](S(C)(=O)=O)CC2)c(C#N)n1-c1ccc(CC(C)(C)C(F)(F)F)cc1OC(F)F [Example 54, 5-Cyano-1-(2-(difluoromethoxy)-4-(3,3,3-trifluoro-2,2-dimethylpropyl)phenyl)-N-(((1s,4s)-1-hydroxy-4-(methylsulfonyl)cyclohexyl)methyl)-2-methyl-1H-imidazole-4-carboxamide]	11	35	inhibition at 1 µM (full-length human RORγt; 1 μM compound concentration (***), read-out: RORγt (FL) Reporter Assay A or B, % inhibition): 83%
[2H]C([2H])([2H])Oc1cc(CCC(F)(F)F)ccc1-n1c(CC)nc(C(=O)NC[C@H]2CC[C@H](S(C)(=O)=O)CC2)c1C#N [Example 29, 5-Cyano-2-ethyl-1-(2-(methoxy-d3)-4-(3,3,3-trifluoropropyl)phenyl)-N-(((1r,4r)-4-(methylsulfonyl)cyclohexyl)methyl)-1H-imidazole-4-carboxamide]	15	87	inhibition at 6 µM (full-length human RORγt): 95%
CCc1nc(C(=O)NC[C@]2(C#N)CC[C@@H](S(C)(=O)=O)CC2)c(C#N)n1-c1ncc(CCC(F)(F)F)cc1OC [Example 121, 5-Cyano-N-(((1s*,4s*)-1-cyano-4-(methylsulfonyl)cyclohexyl)methyl)-2-ethyl-1-(3-methoxy-5-(3,3,3-trifluoropropyl)pyridin-2-yl)-1H-imidazole-4-carboxamide]	300	1700	inhibition at 6 µM (full-length human RORγt): 76%
CCc1nc(C(=O)NC[C@H]2CC[C@H](S(=O)(=O)N(C)C)CC2)c(Cl)n1-c1ncc(CC(C)(C)C(F)(F)F)cc1OC(F)F [Example 70, 5-Chloro-1-(3-(difluoromethoxy)-5-(3,3,3-trifluoro-2,2-dimethylpropyl)pyridin-2-yl)-N-(((1r,4r)-4-(N,N-dimethylsulfamoyl)cyclohexyl)methyl)-2-ethyl-1H-imidazole-4-carboxamide]	320	350	RORγt (FL) Reporter Assay A or B, % inhibition (full-length human RORγt; 3 μM compound concentration (*)): 88* %
CCc1nc(C(=O)NC[C@H]2CC[C@H](S(C)(=O)=O)CC2)c(C)n1-c1ncc(CC(C)(C)C(F)(F)F)cc1OC(F)F [Example 49, 1-(3-(Difluoromethoxy)-5-(3,3,3-trifluoro-2,2-dimethylpropyl)pyridin-2-yl)-2-ethyl-5-methyl-N-(((1r,4r)-4-(methylsulfonyl)cyclohexyl)methyl)-1H-imidazole-4-carboxamide]	5.8	14	inhibition at 6 µM (full-length human RORγt): 94%
CCc1nc(C(=O)NC[C@H]2CC[C@H](S(C)(=O)=O)CC2)c(F)n1-c1ccc(CC(C)(C)C(F)(F)F)cc1OC(F)F [Example 34, 1-(2-(Difluoromethoxy)-4-(3,3,3-trifluoro-2,2-dimethylpropyl)phenyl)-2-ethyl-5-fluoro-N-(((1r,4r)-4-(methylsulfonyl)cyclohexyl)methyl)-1H-imidazole-4-carboxamide]	3.5	37	inhibition at 2 µM (full-length human RORγt; [2]): 98%
CCc1nc(C(=O)NC[C@H]2CC[C@H](S(C)(=O)=O)CC2)cn1-c1ccc(C[C@H](C)C(F)(F)F)cc1OC (single isomer, unassigned) [Example 20, 2-Ethyl-1-(2-methoxy-4-((S*)-3,3,3-trifluoro-2-methylpropyl)phenyl)-N-(((1r,4S)-4-(methylsulfonyl)cyclohexyl)methyl)-1H-imidazole-4-carboxamide]	21	170	inhibition at 2 µM (full-length human RORγt; [2]): 94%
CCc1nc(C(=O)NC[C@H]2CC[C@H](S(C)(=O)=O)CC2)c(C#N)n1-c1ccc(CCC(F)(F)F)cc1OC(F)(F)F [Example 115, 5-Cyano-2-ethyl-N-(((1r,4r)-4-(methylsulfonyl)cyclohexyl)methyl)-1-(2-(trifluoromethoxy)-4-(3,3,3-trifluoropropyl)phenyl)-1H-imidazole-4-carboxamide]	100	190	inhibition at 6 µM (full-length human RORγt): 74%
CCc1nc(C(=O)NC[C@H]2CC[C@H](S(C)(=O)=O)CC2)cn1-c1c(F)cc(CC(C)C)cc1F [Example 82, 1-(2,6-Difluoro-4-isobutylphenyl)-2-ethyl-N-(((1r,4r)-4-(methylsulfonyl)cyclohexyl)methyl)-1H-imidazole-4-carboxamide]	150	370	inhibition at 2 µM (full-length human RORγt; [2]): 44%
CCc1nc(C(=O)NC[C@]2(O)CC[C@@H](S(C)(=O)=O)CC2)c(Cl)n1-c1ccc(CC(C)(C)C(F)(F)F)c(OC)c1 [Example 43, 5-Chloro-2-ethyl-N-(((1s,4s)-1-hydroxy-4-(methylsulfonyl)cyclohexyl)methyl)-1-(3-methoxy-4-(3,3,3-trifluoro-2,2-dimethylpropyl)phenyl)-1H-imidazole-4-carboxamide]	2.2	3.2	inhibition at 0.67 µM (full-length human RORγt; [3]): 86%
CCc1nc(C(=O)NC[C@]2(O)CC[C@@H](S(C)(=O)=O)CC2)c(Cl)n1-c1ncc(C[C@H](C)C(F)(F)F)cc1OC(F)F (single isomer, unassigned) [Example 71, 5-Chloro-1-(3-(difluoromethoxy)-5-((S*)-3,3,3-trifluoro-2-methylpropyl)pyridin-2-yl)-2-ethyl-N-(((1s,4R)-1-hydroxy-4-(methylsulfonyl)cyclohexyl)methyl)-1H-imidazole-4-carboxamide]	28	160	inhibition at 3 µM (full-length human RORγt; [4]): 90%
C#Cc1c(C(=O)NC[C@]2(C#N)CC[C@@H](S(C)(=O)=O)CC2)nc(CC)n1-c1ccc(CC(C)(C)C(F)(F)F)cc1OC(F)F [Example 39, N-(((1s*,4s*)-1-Cyano-4-(methylsulfonyl)cyclohexyl)methyl)-1-(2-(difluoromethoxy)-4-(3,3,3-trifluoro-2,2-dimethylpropyl)phenyl)-2-ethyl-5-ethynyl-1H-imidazole-4-carboxamide]	0.42	7.9	inhibition at 0.67 µM (full-length human RORγt; [3]): 101%
CCc1nc(C(=O)NC[C@]2(O)CC[C@@H](S(C)(=O)=O)CC2)c(C)n1-c1ccc(CC(C)(C)C(F)(F)F)c(OC)c1 [Example 45, 2-Ethyl-N-(((1s,4s)-1-hydroxy-4-(methylsulfonyl)cyclohexyl)methyl)-1-(3-methoxy-4-(3,3,3-trifluoro-2,2-dimethylpropyl)phenyl)-5-methyl-1H-imidazole-4-carboxamide]	7.7	11	inhibition at 0.67 µM (full-length human RORγt; [3]): 77%
COc1cc(N[C@H](C)C(F)(F)F)ccc1-n1c(C(C)(C)C)nc(C(=O)NC[C@H]2CC[C@H](S(C)(=O)=O)CC2)c1Cl [Example 10, 2-(tert-Butyl)-5-chloro-1-(2-methoxy-4-(((R)-1,1,1-trifluoropropan-2-yl)amino)phenyl)-N-(((1r,4R)-4-(methylsulfonyl)cyclohexyl)methyl)-1H-imidazole-4-carboxamide]	6.1	57	inhibition at 2 µM (full-length human RORγt; [2]): 104%
CCc1nc(C(=O)NC[C@H]2CC[C@H](S(C)(=O)=O)CC2)c(C#N)n1-c1ccc(CC(C)C(F)(F)F)cc1OC (stereo partly drawn) [Example 16, 5-Cyano-2-ethyl-1-(2-methoxy-4-(3,3,3-trifluoro-2-methylpropyl)phenyl)-N-(((1r,4r)-4-(methylsulfonyl)cyclohexyl)methyl)-1H-imidazole-4-carboxamide]	1.3	16	inhibition at 2 µM (full-length human RORγt; [2]): 103%
CCc1nc(C(=O)NC[C@]2(C#N)CC[C@@H](S(C)(=O)=O)CC2)c(C#N)n1-c1ncc(CC(C)(C)C(F)(F)F)cc1OC [Example 124, 5-Cyano-N-(((1s*,4s*)-1-cyano-4-(methylsulfonyl)cyclohexyl)methyl)-2-ethyl-1-(3-methoxy-5-(3,3,3-trifluoro-2,2-dimethylpropyl)pyridin-2-yl)-1H-imidazole-4-carboxamide]	37	84	inhibition at 6 µM (full-length human RORγt): 105%
CCc1nc(C(=O)NC[C@H]2CC[C@H](S(C)(=O)=O)CC2)c(Cl)n1-c1c(F)cc(C[C@H](C)C(F)(F)F)cc1F (single isomer, unassigned) [Example 86, 5-Chloro-1-(2,6-difluoro-4-((S*)-3,3,3-trifluoro-2-methylpropyl)phenyl)-2-ethyl-N-(((1r,4S)-4-(methylsulfonyl)cyclohexyl)methyl)-1H-imidazole-4-carboxamide]	5.3	23	inhibition at 0.67 µM (full-length human RORγt; read-out: RORγt (FL) Reporter Assay A or B, % inhibition, 0.67 μM compound concentration (****)): 68%
CCc1nc(C(=O)NC[C@@]2(O)CC[C@H](S(C)(=O)=O)C[C@@H]2O)c(Cl)n1-c1ncc(CC(C(F)(F)F)C(F)(F)F)cc1OC(F)F (stereo in doubt) [Example 66, 5-Chloro-1-(3-(difluoromethoxy)-5-(3,3,3-trifluoro-2-(trifluoromethyl)propyl)pyridin-2-yl)-N-(((1S*,2S*,4S*)-1,2-dihydroxy-4-(methylsulfonyl)cyclohexyl)methyl)-2-ethyl-1H-imidazole-4-carboxamide]	73	790	inhibition at 3 µM (full-length human RORγt; [4]): 70%
